Laboratory results: US8163793B2, “Proline derivatives” (Hoffman-La Roche Inc., priority 2009, dated 2012)

What was measured:
Cathepsin S = Cathepsin S (UniProt P25774); assay: Cathepsin enzyme inhibition assay (fluorogenic peptide substrate Z-Val-Val-Arg-AMC), Cathepsin S; type: biochemical, human and mouse; settings: enzyme 1 nM, substrate 20 μM, pH 6.5; read-out: CatS IC50
How it was run: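 Human or mouse cathepsin S (1 nM) was run in 100 mM potassium phosphate pH 6.5 with 5 mM EDTA, 0.001% Triton X-100 and 5 mM DTT. The rise in AMC fluorescence from cleavage was measured, and IC50 values were calculated by standard methods and expressed in μM.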

Cat L = Cat L (UniProt P07711); assay: Cathepsin enzyme inhibition assay (fluorogenic peptide substrate Z-Val-Val-Arg-AMC), Cathepsin L; type: biochemical, human and mouse; settings: enzyme 1 nM, substrate 20 μM, pH 6.5; read-out: CatL IC50
How it was run: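 Cathepsin L at 1 nM was mixed with compound, then started with 20 μM Z-Val-Val-Arg-AMC in pH 6.5 potassium phosphate with EDTA, Triton X-100 and 5 mM DTT. AMC fluorescence (ex 360/em 465 nm) was followed over 20 min. IC50 is given in μM.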

SMILES | IC50 (Cathepsin S) | IC50 (Cat L)
CC(C)(C)N1CCN(c2ccc(S(=O)(=O)[C@@H]3C[C@@H](C(=O)NC4(C#N)CC4)N(C(=O)C4(C(F)(F)F)CC4)C3)c(Cl)c2)CC1 [Example 296, (2S,4R)-4-[4-(4-tert-Butyl-piperazin-1-yl)-2-chloro-benzenesulfonyl]-1-(1-trifluoromethyl-cyclopropanecarbonyl)-pyrrolidine-2-carboxylic acid (1-cyano-cyclopropyl)-amide] | 0.123 nM | 1180 nM
COCCN1CCN(c2ccc(S(=O)(=O)[C@@H]3C[C@@H](C(=O)NC4(C#N)CC4)N(C(=O)C4(C(F)(F)F)CC4)C3)c(Cl)c2)CC1 [Example 297, (2S,4R)-4-{2-Chloro-4-[4-(2-methoxy-ethyl)-piperazin-1-yl]-benzenesulfonyl}-1-(1-trifluoromethyl-cyclopropanecarbonyl)-pyrrolidine-2-carboxylic acid (1-cyano-cyclopropyl)-amide] | 0.08 nM | 1340 nM
N#CC1(NC(=O)[C@@H]2C[C@@H](S(=O)(=O)c3ccc(N4CCN(C5CC5)CC4)cc3Cl)CN2C(=O)C2(C(F)(F)F)CC2)CC1 [Example 298, (2S,4R)-4-[2-Chloro-4-(4-cyclopropyl-piperazin-1-yl)-benzenesulfonyl]-1-(1-trifluoromethyl-cyclopropanecarbonyl)-pyrrolidine-2-carboxylic acid (1-cyano-cyclopropyl)-amide] | 0.22 nM | 1580 nM
N#CC1(NC(=O)[C@@H]2C[C@@H](S(=O)(=O)c3ccc(N4CCN5CCC[C@H]5C4)cc3Cl)CN2C(=O)C2(C(F)(F)F)CC2)CC1 [Example 299, (2S,4R)-4-((S)-2-Chloro-4-hexahydro-pyrrolo[1,2-a]pyrazin-2-yl-benzenesulfonyl)-1-(1-trifluoromethyl-cyclopropanecarbonyl)-pyrrolidine-2-carboxylic acid (1-cyano-cyclopropyl)-amide] | 0.17 nM | 1180 nM
Cc1cc(N2C[C@H](S(=O)(=O)c3ccccc3C(F)(F)F)C[C@H]2C(=O)NC2(C#N)CC2)n(C)n1 [Example 300, (2S,4R)-1-(2,5-Dimethyl-2H-pyrazol-3-yl)-4-(2-trifluoromethyl-benzenesulfonyl)-pyrrolidine-2-carboxylic acid (1-cyano-cyclopropyl)-amide] | 0.885 nM | 50700 nM
N#CC1(NC(=O)[C@@H]2C[C@@H](S(=O)(=O)c3ccc(N4CCn5cnnc5C4)cc3Cl)CN2C(=O)C2(C(F)(F)F)CC2)CC1 [Example 301, (2S,4R)-4-[2-Chloro-4-(5,6-dihydro-8H-[1,2,4]triazolo[4,3-a]pyrazin-7-yl)-benzenesulfonyl]-1-(1-trifluoromethyl-cyclopropanecarbonyl)-pyrrolidine-2-carboxylic acid (1-cyano-cyclopropyl)-amide] | 0.12 nM | 1540 nM
N#CC1(NC(=O)[C@@H]2C[C@@H](S(=O)(=O)c3ccc(OCC(F)(F)F)cc3Cl)CN2C(=O)C2(c3ccc(Cl)cc3)CCCC2)CC1 [Example 302, (2S,4R)-1-[1-(4-Chloro-phenyl)-cyclopentanecarbonyl]-4-[2-chloro-4-(2,2,2-trifluoro-ethoxy)-benzenesulfonyl]-pyrrolidine-2-carboxylic acid (1-cyano-cyclopropyl)-amide] | 0.03 nM | 575 nM
N#CC1(NC(=O)[C@@H]2C[C@@H](S(=O)(=O)c3ccc(OCC(F)(F)F)cc3Cl)CN2C(=O)C2(c3ccccc3)CCCCC2)CC1 [Example 303, (2S,4R)-4-[2-Chloro-4-(2,2,2-trifluoro-ethoxy)-benzenesulfonyl]-1-(1-phenyl-cyclohexanecarbonyl)-pyrrolidine-2-carboxylic acid (1-cyano-cyclopropyl)-amide] | 0.03 nM | 1480 nM
Cc1ccc(C2(C(=O)N3C[C@H](S(=O)(=O)c4ccc(OCC(F)(F)F)cc4Cl)C[C@H]3C(=O)NC3(C#N)CC3)CC2)cc1 [Example 304, (2S,4R)-4-[2-Chloro-4-(2,2,2-trifluoro-ethoxy)-benzenesulfonyl]-1-(1-p-tolyl-cyclopropanecarbonyl)-pyrrolidine-2-carboxylic acid (1-cyano-cyclopropyl)-amide] | 0.445 nM | 805 nM
Cc1cc(N2C[C@H](S(=O)(=O)c3ccc(OCC(F)(F)F)cc3C(F)(F)F)C[C@H]2C(=O)NC2(C#N)CC2)n(-c2ccc(C(F)(F)F)cc2)n1 [Example 306, (2S,4R)-1-[5-Methyl-2-(4-trifluoromethyl-phenyl)-2H-pyrazol-3-yl]-4-[4-(2,2,2-trifluoro-ethoxy)-2-trifluoromethyl-benzenesulfonyl]-pyrrolidine-2-carboxylic acid (1-cyano-cyclopropyl)-amide] | 0.555 nM | 64500 nM
Cc1cc(N2C[C@H](S(=O)(=O)c3ccccc3C(F)(F)F)C[C@H]2C(=O)NC2(C#N)CC2)n(C2CCOCC2)n1 [Example 307, (2S,4R)-1-[5-Methyl-2-(tetrahydro-pyran-4-yl)-2H-pyrazol-3-yl]-4-(2-trifluoromethyl-benzenesulfonyl)-pyrrolidine-2-carboxylic acid (1-cyano-cyclopropyl)-amide] | 0.205 nM | 52100 nM
N#CC1(NC(=O)[C@@H]2C[C@@H](S(=O)(=O)c3ccc(OCC(F)(F)F)cc3Cl)CN2C(=O)C2(c3ccc(C(F)(F)F)cc3)CC2)CC1 [Example 310, (2S,4R)-4-[2-Chloro-4-(2,2,2-trifluoro-ethoxy)-benzenesulfonyl]-1-[1-(4-trifluoromethyl-phenyl)-cyclopropanecarbonyl]-pyrrolidine-2-carboxylic acid (1-cyano-cyclopropyl)-amide] | 0.26 nM | 220 nM
N#CC1(NC(=O)[C@@H]2C[C@@H](S(=O)(=O)c3ccc(OCC(F)(F)F)cc3Cl)CN2C(=O)C2(c3cccc(C(F)(F)F)c3)CC2)CC1 [Example 311, (2S,4R)-4-[2-Chloro-4-(2,2,2-trifluoro-ethoxy)-benzenesulfonyl]-1-[1-(3-trifluoromethyl-phenyl)-cyclopropanecarbonyl]-pyrrolidine-2-carboxylic acid (1-cyano-cyclopropyl)-amide] | 0.155 nM | 745 nM
N#CC1(NC(=O)[C@@H]2C[C@@H](S(=O)(=O)c3ccccc3Cl)CN2S(=O)(=O)c2ccc3ccccc3c2)CC1 [Example 313, (2S,4R)-4-(2-Chloro-benzenesulfonyl)-1-(naphthalene-2-sulfonyl)-pyrrolidine-2-carboxylic Acid (1-cyano-cyclopropyl)-amide] | 0.46 nM | 1390 nM

More lines, now with the values ahead:

IC50 (Cathepsin S) | IC50 (Cat L) | SMILES
0.37 nM | 1680 nM | N#CC1(NC(=O)[C@@H]2C[C@@H](S(=O)(=O)c3ccc(OCC(F)(F)F)cc3Cl)CN2C(=O)C2(c3ccc(Cl)cc3)CCCCC2)CC1 [Example 314, (2S,4R)-1-[1-(4-Chloro-phenyl)-cyclohexanecarbonyl]-4-[2-chloro-4-(2,2,2-trifluoro-ethoxy)-benzenesulfonyl]-pyrrolidine-2-carboxylic acid (1-cyano-cyclopropyl)-amide]
0.39 nM | 2500 nM | N#CC1(NC(=O)[C@@H]2C[C@@H](S(=O)(=O)c3ccccc3Cl)CN2S(=O)(=O)c2ccc(Cl)cc2)CC1 [Example 315, (2S,4R)-4-(2-Chloro-benzenesulfonyl)-1-(4-chloro-benzenesulfonyl)-pyrrolidine-2-carboxylic Acid (1-cyano-cyclopropyl)-amide]
0.3 nM | 5240 nM | N#CC1(NC(=O)[C@@H]2C[C@@H](S(=O)(=O)c3ccccc3Cl)CN2S(=O)(=O)c2ccc(-c3ccccc3)cc2)CC1 [Example 316, (2S,4R)-1-(Biphenyl-4-sulfonyl)-4-(2-chloro-benzenesulfonyl)-pyrrolidine-2-carboxylic acid (1-cyano-cyclopropyl)-amide]
22.8 nM | ≥ 25000 nM | Cc1cc(N2C[C@H](S(=O)(=O)c3ccccc3C(F)(F)F)C[C@H]2C(=O)NC2(C#N)CC2)n(-c2cccnn2)n1 [Example 317, (2S,4R)-1-(5-Methyl-2-pyridazin-3-yl-2H-pyrazol-3-yl)-4-(2-trifluoromethyl-benzenesulfonyl)-pyrrolidine-2-carboxylic acid (1-cyano-cyclopropyl)-amide]
0.437 nM | 11300 nM | Cc1cc(N2C[C@H](S(=O)(=O)c3ccccc3C(F)(F)F)C[C@H]2C(=O)NC2(C#N)CC2)n(C2CCCCC2)n1 [Example 318, (2S,4R)-1-(2-Cyclohexyl-5-methyl-2H-pyrazol-3-yl)-4-(2-trifluoromethyl-benzenesulfonyl)-pyrrolidine-2-carboxylic acid (1-cyano-cyclopropyl)-amide]
1.43 nM | 40800 nM | Cc1cc(N2C[C@H](S(=O)(=O)c3ccccc3C(F)(F)F)C[C@H]2C(=O)NC2(C#N)CC2)n(Cc2ccccc2)n1 [Example 319, (2S,4R)-1-(2-Benzyl-5-methyl-2H-pyrazol-3-yl)-4-(2-trifluoromethyl-benzenesulfonyl)-pyrrolidine-2-carboxylic acid (1-cyano-cyclopropyl)-amide]
80.5 nM | ≥ 25000 nM | Cc1cc(N2C[C@H](S(=O)(=O)c3ccccc3C(F)(F)F)C[C@@H]2C(=O)NC2(C#N)CC2)n(C2CCCCC2)n1 [Example 320, (2R,4R)-1-(2-Cyclohexyl-5-methyl-2H-pyrazol-3-yl)-4-(2-trifluoromethyl-benzenesulfonyl)-pyrrolidine-2-carboxylic acid (1-cyano-cyclopropyl)-amide]
68.3 nM | ≥ 25000 nM | Cc1cc(N2C[C@H](S(=O)(=O)c3ccccc3C(F)(F)F)C[C@@H]2C(=O)NC2(C#N)CC2)n(Cc2ccccc2)n1 [Example 321, (2R,4R)-1-(2-Benzyl-5-methyl-2H-pyrazol-3-yl)-4-(2-trifluoromethyl-benzenesulfonyl)-pyrrolidine-2-carboxylic acid (1-cyano-cyclopropyl)-amide]
